As usually defined, the inhibition is the share of the control response that was lost under treatment.

The target of one assay is T1, hDGAT1 (Homo sapiens, UniProt O75907).
T1 sequence (O75907 1-488): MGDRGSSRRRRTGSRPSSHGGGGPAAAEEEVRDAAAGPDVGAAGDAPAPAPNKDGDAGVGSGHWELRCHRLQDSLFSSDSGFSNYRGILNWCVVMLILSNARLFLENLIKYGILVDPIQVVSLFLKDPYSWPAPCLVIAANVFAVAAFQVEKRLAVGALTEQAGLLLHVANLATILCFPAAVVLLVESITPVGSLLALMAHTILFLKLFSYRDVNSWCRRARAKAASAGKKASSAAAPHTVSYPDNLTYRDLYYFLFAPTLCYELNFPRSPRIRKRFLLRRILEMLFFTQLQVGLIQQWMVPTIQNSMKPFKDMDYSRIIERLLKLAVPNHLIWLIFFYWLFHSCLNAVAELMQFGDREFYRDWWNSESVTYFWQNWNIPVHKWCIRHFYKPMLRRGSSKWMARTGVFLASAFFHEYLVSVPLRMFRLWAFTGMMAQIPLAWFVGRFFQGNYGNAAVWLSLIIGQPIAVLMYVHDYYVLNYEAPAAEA
Kind of assay: In-vitro DGAT1 assay (14C oleoyl CoA, hDGAT1 microsomes from Sf9 cells). The settings on record: at 1 μM.
Procedure: Sf9 cells were seeded in spinner flasks on day 0 at a cell density of 1×10^6 and infected on day 1 with hDGAT1 baculovirus at a multiplicity of infection (MOI) of 5 and a cell density of 2×10^6. On day 3 (or 66-72 h), cells were harvested and centrifuged at 2500×g for 10 min. Pellet was resuspended in lysis buffer (100 mM sucrose, 50 mM KCl, 40 mM KH2PO4, 30 mM EDTA, pH 7.2) and passed through 21-gauge needle approximately 10 times. […] The supernatant was subjected to centrifugation at 35,000 rpm in a Beckman Ti-45 rotor at 4° C. for 1 h. The resultant pellet containing the microsomes wasere resuspended overnight in 1 mL of lysis buffer and total protein concentration was estimated using Bradford Reagent. Microsomes were aliquoted and stored at −80° C.
Frozen aliquots of hDGAT1 containing microsomes were thawed (5-10 mg/mL total protein) on ice and diluted to a working stock of 1 mg/mL with DGAT Assay Buffer (DAB).
The assay was performed in duplicates in a reaction volume of 100 μL. […] Procedure:
The reaction was started by the addition of 2.5 μL of 1 mg/mL of microsomes (iv) to the mixture and incubated at 37° C. for 10 min. […] The mixture was vortexed and the triglycerides formed were extracted into the organic heptane phase.
For the compound `O=C(Nc1ccc(-c2ccc3c(c2)C(=O)N(C2CCC(C(=O)O)CC2)C3)cc1)c1ccc(-c2ccccc2)cc1` (stereo not drawn) [Example 557, (1r,4r)-4-(6-(4-([1,1′-Biphenyl]-4-ylcarboxamido)phenyl)-1-oxoisoindolin-2-yl)cyclohexanecarboxylic acid], the “% Inhibition of hDGAT1” value is on record as “++ (>50% Inhibition)”.
Still for that read-out and setting: as for “3-(1-Oxo-6-(4-(4-(trifluoromethyl)benzamido)phenyl)isoindolin-2-yl)cyclo hexanecarboxylic acid [Example 551]”, the entry is “++ (>50% Inhibition)”; as for `Cc1cc(NC(=O)c2ccc(-c3ccccc3)cc2)ccc1-c1ccc2c(c1)C(=O)N([C@H](C(=O)O)C(C)C)C2` [Example 470, (S)-2-(6-(4-Biphenyl-4-ylcarboxamido-2-methylphenyl)-1-oxoisoindolin-2-yl)-3-methylbutanoic acid], “++ (>50% Inhibition)”.
On the same count and under the same terms, the result for `O=C(Nc1ccc(-c2ccc3c(c2)C(=O)N(C2(C(=O)O)CCCC2)C3)cc1)c1ccc(-c2ccccc2)cc1` [Example 529, 1-(6-(4-([1,1′-Biphenyl]-4-ylcarboxamido)phenyl)-1-oxoisoindolin-2-yl)cyclopentane carboxylic acid] reads “++ (>50% Inhibition)”; that for `O=C(Nc1ccc(-c2ccc3c(c2)C(=O)N([C@@H]2CCC[C@@H]2C(=O)O)C3)cc1)c1ccc(-c2ccccc2)cc1` [Example 594, (1S,2R)-2-(6-(4-([1,1′-Biphenyl]-4-ylcarboxamido)phenyl)-1-oxoisoindolin-2-yl)cyclopentanecarboxylic acid], “++ (>50% Inhibition)”.

Staying with this assay, now noted: read-out: % Inhibition of hDGAT1.
Take `CCCCCc1ccc(C(=O)Nc2ccc(-c3ccc4c(c3)C(=O)N([C@H](C(=O)O)C(C)C)C4)c(F)c2)cc1` [Example 610, (S)-2-(6-(2-Fluoro-4-(4-pentylbenzamido)phenyl)-1-oxoisoindolin-2-yl)-3-methyl butanoic acid]: the inhibition at 1 µM is greater than 50%.
The same measure, in the same setting: the result for `CCCCCc1ccc(C(=O)Nc2ccc(-c3ccc4c(c3)C(=O)N([C@H](C(=O)O)C(C)C)C4)c(C(F)(F)F)c2)cc1` [Example 430, (S)-3-Methyl-2-(1-oxo-6-(4-(4-pentylbenzamido)-2-(trifluoromethyl)phenyl)isoindolin-2-yl)butanoic acid] reads 10 to 50%.
On the same count and under the same terms, the result for `CC(C)[C@@H](C(=O)O)N1Cc2cc(-c3ccc(NC(=O)c4ccc(Cl)cc4)cc3)ccc2C1=O` [Example 321, (S)-2-(5-(4-(4-Chlorobenzamido)phenyl)-1-oxoisoindolin-2-yl)-3-methylbutanoic acid] reads greater than 50%.
On the same count and under the same terms, the result for `CCCCCc1ccc(C(=O)Nc2ccc(-c3ccc4c(c3)C(=O)N([C@H](C(=O)O)C(C)C)C4)cc2F)cc1` [Example 446, (S)-2-(6-(3-Fluoro-4-(4-pentylbenzamido)phenyl)-1-oxoisoindolin-2-yl)-3-methylbutanoic acid] reads greater than 50%; that for `COC[C@@H](C(=O)O)N1Cc2cc(-c3ccc(NC(=O)Nc4cccc(C(F)(F)F)c4)cc3)ccc2C1=O` [Example 385, (S)-3-Methoxy-2-(1-oxo-5-(4-(3-(3-(trifluoromethyl)phenyl)ureido)phenyl)isoindolin-2-yl)propanoic acid], 10 to 50%; that for `Cc1ccccc1NC(=S)Nc1ccc(-c2ccc3c(c2)C(=O)N([C@H](C(=O)O)C(C)C)C3)cc1` [Example 72, (S)-3-Methyl-2-(1-oxo-6-(4-(3-o-tolylthioureido)phenyl)isoindolin-2-yl)butanoic acid], greater than 50%.
As to `CC(C)[C@@H](C(=O)O)N1Cc2ccc(-c3ccc(NC(=O)Nc4ccc(F)c(F)c4)cc3C(F)(F)F)cc2C1=O` [Example 418, (S)-2-(6-(4-(3-(3,4-Difluorophenyl)ureido)-2-(trifluoromethyl)phenyl)-1-oxoisoindolin-2-yl)-3-methylbutanoic acid], the inhibition at 1 µM fell in the range of 10 to 50%.
Still for that read-out and setting: as for `CC(C)[C@@H](C(=O)O)N1Cc2cc(-c3ccc(NC(=S)Nc4cccc(Cl)c4)cc3)ccc2C1=O` [Example 267, (S)-2-(5-(4-(3-(3-Chlorophenyl)thioureido)phenyl)-1-oxoisoindolin-2-yl)-3-methylbutanoic acid], the figure is 10 to 50%; as for `CC(C)[C@@H](C(=O)O)N1Cc2ccc(-c3ccc(NC(=S)Nc4cccc(C(F)(F)F)c4)cc3)cc2C1=O` [Example 76, (S)-3-Methyl-2-(1-oxo-6-(4-(3-(3-(trifluoromethyl)phenyl)thioureido)phenyl)isoindolin-2-yl)butanoic acid], greater than 50%.
`CCCCCc1ccc(C(=O)Nc2ccc(-c3ccc4c(c3)C(=O)N(C(C)(C)C(=O)O)C4)cc2)cc1` [Example 525, 2-Methyl-2-(1-oxo-6-(4-(4-pentylbenzamido)phenyl)isoindolin-2-yl)propanoic acid]: the inhibition at 1 µM was in the range of 10 to 50%.
For the compound `Cc1ccc(NC(=S)Nc2ccc(-c3ccc4c(c3)C(=O)N([C@H](C(=O)O)C(C)C)C4)cc2)cc1` [Example 54, (S)-3-Methyl-2-(1-oxo-6-(4-(3-p-tolylthioureido)phenyl)isoindolin-2-yl)butanoic acid], the inhibition at 1 µM was 10 to 50%.
The same measure, in the same setting: the result for `CC(C)[C@@H](C(=O)O)N1Cc2ccc(-c3ccc(NS(=O)(=O)C(C)C)cc3)cc2C1=O` [Example 96, (S)-3-Methyl-2-(6-(4-(1-methylethylsulfonamido)phenyl)-1-oxoisoindolin-2-yl)butanoic acid] reads 10 to 50%.
On the same count and under the same terms, as for `CCCCCc1ccc(C(=O)Nc2ccc(-c3ccc4c(c3)C(=O)N([C@H](C(=O)O)C(C)C)C4)c(OC)c2)cc1` [Example 462, (S)-2-(6-(2-Methoxy-4-(4-pentylbenzamido)phenyl)-1-oxoisoindolin-2-yl)-3-methylbutanoic acid], the figure is 10 to 50%; as for `CCCCCCCc1ccc(C(=O)Nc2ccc(-c3ccc4c(c3)C(=O)N([C@H](C(=O)O)C(C)C)C4)cc2)cc1` [Example 184, (S)-2-(6-(4-(4-Heptylbenzamido)phenyl)-1-oxoisoindolin-2-yl)-3-methylbutanoic acid], greater than 50%; as for `CCCCOc1ccc(C(=O)Nc2ccc(-c3ccc4c(c3)C(=O)N([C@H](C(=O)O)C(C)C)C4)cc2)cc1` [Example 136, (S)-2-(6-(4-(4-Butoxybenzamido)phenyl)-1-oxoisoindolin-2-yl)-3-methyl butanoic acid], greater than 50%.
The same measure, in the same setting: the result for `CC(C)[C@@H](C(=O)O)N1Cc2cc(-c3ccc(NC(=O)NCc4ccccc4)cc3)ccc2C1=O` [Example 233, (S)-2-(5-(4-(3-Benzylureido)phenyl)-1-oxoisoindolin-2-yl)-3-methylbutanoic acid] reads 10 to 50%.
Regarding `CCCCCCCCCCc1ccc(C(=O)Nc2ccc(-c3ccc4c(c3)C(=O)N([C@H](C(=O)O)C(C)C)C4)cc2)cc1` [Example 188, (S)-2-(6-(4-(4-Decylbenzamido)phenyl)-1-oxoisoindolin-2-yl)-3-methyl butanoic acid], the inhibition at 1 µM is greater than 50%.
Same read-out and setting: the result for `CC(C)[C@@H](C(=O)O)N1Cc2ccc(-c3ccc(NC(=O)c4cccnc4Cl)cc3)cc2C1=O` [Example 209, (S)-2-(6-(4-(2-Chloronicotinamido)phenyl)-1-oxoisoindolin-2-yl)-3-methyl butanoic acid] reads greater than 50%.
Same read-out and setting: as for `CC(C)[C@@H](C(=O)O)N1Cc2cc(-c3ccc(NC(=O)Nc4cccc(C(F)(F)F)c4)cc3)ccc2C1=O` [Example 247, (S)-3-Methyl-2-(1-oxo-5-(4-(3-(3-(trifluoromethyl)phenyl)ureido)phenyl)isoindolin-2-yl)butanoic acid], the figure is greater than 50%; as for `CC(C)[C@@H](C(=O)O)N1Cc2ccc(-c3ccc(NC(=O)c4ccc5ccccc5c4)cc3C(F)(F)F)cc2C1=O` [Example 428, (S)-2-(6-(4-(2-Naphthamido)-2-(trifluoromethyl)phenyl)-1-oxoisoindolin-2-yl)-3-methylbutanoic acid], 10 to 50%; as for `CC(C)[C@@H](C(=O)O)N1Cc2ccc(-c3ccc(NC(=O)c4cc(-c5ccc(F)cc5)no4)cc3)cc2C1=O` [Example 616, (S)-2-(6-(4-(3-(4-Fluorophenyl)isoxazole-5-carboxamido)phenyl)-1-oxoisoindolin-2-yl)-3-methylbutanoic acid], greater than 50%.
The same measure, in the same setting: the result for `CC(C)[C@@H](C(=O)O)N1Cc2ccc(-c3cnc(NC(=O)c4ccc(C(C)(C)C)cc4)cn3)cc2C1=O` [Example 505, (S)-2-(6-(5-(4-tert-Butylbenzamido)pyrazin-2-yl)-1-oxoisoindolin-2-yl)-3-methylbutanoic acid] reads 10 to 50%; that for `CCc1ccc(C(=O)Nc2ccc(-c3ccc4c(c3)C(=O)N([C@H](C(=O)O)C(C)C)C4)cc2)cc1` [Example 168, (S)-2-(6-(4-(4-Ethylbenzamido)phenyl)-1-oxoisoindolin-2-yl)-3-methylbutanoic acid], greater than 50%.
`CC(C)[C@@H](C(=O)O)N1Cc2ccc(-c3ccc(NC(=S)Nc4ccccc4F)cc3)cc2C1=O` [Example 52, (S)-2-(6-(4-(3-(2-Fluorophenyl)thioureido)phenyl)-1-oxoisoindolin-2-yl)-3-methylbutanoic acid]: the inhibition at 1 µM was 10 to 50%.
On the same count and under the same terms, as for `CC(C)[C@@H](C(=O)O)N1Cc2ccc(-c3ccc(NC(=O)c4cccc(Cl)c4)cc3)cc2C1=O` [Example 108, (S)-2-(6-(4-(3-Chlorobenzamido)phenyl)-1-oxoisoindolin-2-yl)-3-methylbutanoic acid], the figure is greater than 50%.

Values taken from patent US8748426B2, “Inhibitors of diacylglycerol acyl transferase” (Piramal Enterprises Limited, priority 2009, dated 2014).
